The text below walks through data of patent US8399466B2, “Composition for regenerative treatment of cartilage disease” (Mitsubishi Tanabe Pharma Corporation, priority 2001, dated 2013).

In test [1] the test system is cAMP hydrolytic PDE expressed in human articular cartilage (fraction Nos. 28-30). In words: Inhibition of cAMP hydrolyzing activity of fraction Nos. 28-30 of human articular cartilage extract. Format: biochemical. On the procedure:
From the human knee articular cartilage was isolated on surgery of osteoarthrosis patients. Cartilage portion was scrapped with a surgery knife, washed with ice-cold phosphate buffer and stored at −80° C. The cartilage tissues were milled at −80° C. and then, scattered into pieces with homogenizer (Kinematica A.G., Polytron) in ice-cold homogenization buffer (20 mM Tris-HCl, pH 8.0, 1 mM ethylene glycol bis(β-aminoethylether)-N,N,N′,N′-tetraacetic acid, 1 mM dithiothreitol, 10 μg/ml leupeptin, 5 mM benzamidine, 0.2 mM phenylmethylsulfonyl fluoride, 1 mM sodium azide and 5 mM mercaptoethanol). The resultant homogenate was centrifuged (100,000×g; 30 minutes) to separate supernatant.
The above supernatant was loaded on a Mono Q Sepharose High Performance column (Amersham Pharmacia Biotech) equilibrated with elution buffer (20 mM Tris-HCl, pH 8.0, 1 mM ethylene glycol bis(β-aminoethylether)-N,N,N′,N′-tetraacetic acid, 1 mM dithiothreitol, 2 μg/ml leupeptin, 5 mM benzamidine). After washing the column with 20 ml of elution buffer, proteins were eluted into 1 ml fractions by aqueous sodium chloride solution (concentration gradient: 0 to 1000 mM, 70 ml) under ice-cooling. Each fraction was subjected to the determination of hydrolytic activity (PDE activity) toward cAMP and cGMP as a substrate.
The determination of PDE activity was performed by a radio-labeled nucleic acid assay. That is, the reaction was initiated by adding from 10 to 50 μl of elution fraction to 500 μl of assay buffer (50 mM Tris-HCl, pH 8.0, 5 mM magnesium chloride, 4 mM 2-mercaptoethanol) containing 1 μM of unlabeled cAMP and 22 nM of [^3H]-cAMP (Amersham Pharmacia Biotech).
After incubation at 37° C. for 30 minutes, the reaction was quenched by boiling for 1.5 minutes. Then, 100 μl of 1 mg/ml Crtalus atrox snake venom was added and incubated at 37° C. for 30 minutes. After addition of 500 μl of methanol, the reaction solution was subjected to Dowex column (1×8-400). To each eluate was added a liquid scintillation cocktail and the radio activity was measured.
The inhibitory activity of PDE4 inhibitor on fraction Nos. 28-30 containing potent cAMP hydrolyzing activity was measured according to the above-mentioned radio-labeled nucleic acid assay. The test compounds are Compound (1), Compound (2), Compound (11), Compound (44) and Compound (27).

The subject of test [2] is rabbit articular chondrocytes. In words: Matrix production of rabbit articular chondrocytes in the presence of IL-1. The format is cell-based. Particulars: 1 × 10^−6 M; IL-1β 1 ng/ml; until day 3; vehicle = 100. On the procedure:
Four NZW line rabbits (Kitayama Labes., Co Ltd.; male; 4-week-old) were sacrificed with bleeding under ether anesthesia and knee joints of femur side were collected aseptically. Only the cortical layer was scrapped with a surgical knife in phosphate buffer (pH 7.2) containing 0.2% glucose and then placed into a 50 ml tube containing phosphate buffered saline containing 0.2% glucose. The collected knee joint cortical layer was cut into as small sections as possible on a dish with a razor, combined with 50 ml of phosphate buffer (100 mg trypsin, 40 mg EDTA·4 Na; pH 7.2) containing 0.2% glucose, supplied with 10× trypsin-ethylenediamine tetraacetic acid tetra sodium salt (EDTA·4Na: GIBCO; Cat. No. 15400-054) and shaken at 37° C. for 15 minutes.
After shaking, the precipitates were collected by centrifugation (1,400 rpm) and washed twice with 40 ml of phosphate buffer (pH 7.2) with 0.2% glucose.
To the washed precipitates was added 40 ml of α-minimum essential medium (MEM: GIBCO; Cat. No. 12571-063) containing 60 mg of collagenase for cell diffusion (Wako Pure Chemical Industries, Ltd., 034-10533) and antibiotics (200 U/ml penicillin G and 200 μg/ml streptomycin sulfate) (GIBCO; Cat. No. 15140-122), and the mixture was transferred to a 100 ml beaker containing a sterilized stirrer bar.
The incubation was conducted in a CO2 incubator at 37° C. for 30 minutes under stirring with a stirrer bar. Deoxyribonuclease I (Takara Shuzo Co., LTD.; Cat. No. 2210A) was then added at a concentration of 70 U/ml. The cultivation was conducted under the same condition for another 30 minutes. The supernatant of the culture was collected in another vessel and the remaining cartilage slips were then cultured again for about 30 minutes in freshly prepared α-minimum essential medium containing 60 mg of collagenase and 70 U/m1 deoxyribonuclease I.
To the previously collected culture supernatant and the last culture, from which cartilage slips had been removed using a 40 μm Cell Strainer (FALCON; Cat. No. 2340), 10 ml of α-minimum essential medium (MEM: GIBCO; Cat. No. 12571-063) containing 10% fetal calf serum (GIBCO Cat. No. 10099-141) and antibiotics (200 U/ml penicillin G and 200 μg/ml streptomycin sulfate) (GIBCO; Cat. No. 15140-122) was added and centrifuged (1,400 rpm, 10 minutes).
The precipitates were washed twice with α-minimum essential medium containing 10% fetal calf serum and antibiotics, suspended with an appropriate volume of the same medium, and seeded into 48-well plates (20,000 cells/well). […]
After staining, the cells were washed 3 times with 1 ml of phosphate buffer (pH 7.2). Alcian blue which had stained cartilage matrix was dissolved with 0.25 ml of 6 M aqueous guanidine hydrochloride solution and a portion of which was used to determine the absorbance at 620 nm. […]

Take `CCOc1cc2cc(CO)c(CO)c(-c3ccnc(-n4nc(-c5cccnc5)c5ccccc5c4=O)c3)c2cc1OCC` [Compound (2)]: the “inhibition of the hydrolytic activity of the fraction” value in test [1] (fraction Nos. 28-30, FIG. 4) is given as “inhibits the hydrolytic activity of the fraction strongly”. The “IC50 for fraction(s)” value in test [1] (method of Journal of Medicinal Chemistry, vol. 42, 1088-1099 (1999), values only in FIG. 4) is recorded as “consistent with the IC50 of PDE4 inhibition activity described in the same literature”. Moreover, the “Proteoglycan Production (%)” value in test [2] worked out at 143%.
As to `COc1ccc(C(=O)Nc2c(Cl)cncc2Cl)cc1OC1CCCC1` [Compound (11)], the “Proteoglycan Production (%)” value in test [2] is 121%.
